Assay results published in US20250312333A1, “COMPOSITION CONTAINING ARIPIPRAZOLE AS ACTIVE INGREDIENT FOR ENHANCING ANTICANCER EFFECT OF KRAS G12C GENETIC MUTATION THERAPEUTIC AGENT” (KOREA INSTITUTE OF RADIOLOGICAL & MEDICAL SCIENCES, priority 2022, published 2025).

Key:
Format in all cases: cell-based
MIA PaCa-2 cells = experiment: PARP cleavage (apoptosis) by Western blot in MIA PaCa-2 cells; conditions: co-treatment with the therapeutic agent for KRAS G12C genetic mutation vs either agent alone, twenty four hours (FIG. 3)
Procedure: (§1) To identify the effect of aripiprazole on apoptosis induced by the therapeutic agent for KRAS G12C genetic mutation in cancer cells, MIA PaCa-2 cells were treated with aripiprazole alone or in combination with the therapeutic agent for KRAS G12C genetic mutation. Twenty four hours later, proteins were extracted from cells after washing with PBS, and the degree of PARP cleavage was checked via Western blot.

NOXA protein [1] = experiment: NOXA protein expression by Western blot in MIA PaCa-2 cells; conditions: aripiprazole treatment, eight hours, Western blot (FIG. 1)
Procedure: (§2) To identify an effect of aripiprazole on the expression of a NOXA protein in cancer cells, MIA PaCa-2 cells and NCI-H1373 cells were treated with aripiprazole. Eight hours later, proteins were extracted from cells after washing with PBS, and a level of NOXA expression was checked via Western blot.

NCI-H1373 cells = experiment: PARP cleavage (apoptosis) by Western blot in NCI-H1373 cells; conditions: co-treatment with the therapeutic agent for KRAS G12C genetic mutation vs either agent alone, twenty four hours (FIG. 4)
Procedure: as §1, with “NCI-H1373” for “MIA PaCa-2”

NOXA protein [2] = experiment: NOXA protein expression by Western blot in NCI-H1373 cells; conditions: aripiprazole treatment, eight hours, Western blot (FIG. 1)
Procedure: as §2

## O=C1CCc2ccc(OCCCCN3CCN(c4cccc(Cl)c4Cl)CC3)cc2N1 [aripiprazole]
MIA PaCa-2 cells
  degree of PARP cleavage: superior effect of inducing PARP cleavage
NOXA protein [1]
  expression of NOXA protein: increased
NCI-H1373 cells
  degree of PARP cleavage: superior effect of inducing PARP cleavage
NOXA protein [2]
  expression of NOXA protein: increased
